In patent US12514858B2, “CD38 inhibitors” (Astellas Engineered Small Molecules US, Incorporated, priority 2020, dated 2026):
pIC50: −log10 of the molar value.

target: Human CD38 (Homo sapiens (Human), UniProt P28907); assay: Determination of IC50 against human CD38 (CD38 Inhibitor Screening Assay Kit, glycohydrolase activity, fluorescence); format: biochemical; conditions: CD38 hydrolase enzyme, 30 min preincubation at room temperature, F-NAD substrate, excitation 300 nm, emission 410 nm; read-out: hCD38 IC50
Protocol: CD38 hydrolase buffer (4×) was thawed on ice and 1×CD38 hydrolase buffer was prepared by diluting 4×CD38 hydrolase buffer with water. CD38 hydrolase enzyme was diluted to […] with 1×CD38 hydrolase buffer (10 ng/well). Master mix was prepared by mixing equal volumes of water and CD38 hydrolase buffer (4×) and 10 μl of the mix was added to all the wells. Following master mix addition, 10 μl of the inhibitors and 20 μl of CD38 hydrolase enzyme were added to the wells. For wells designated blank, 10 μl and 20 μl of 1× CD38 hydrolase buffer was added respectively in place of […]. The plate was covered and incubated 30 min at room temperature with slow shaking at 400 rpm. After 30 min incubation, the plate was removed and 10 μl of diluted F-NAD substrate was added to all the wells. The plate is incubated for 10 min, spun at 1200 rpm for 30 secs to remove bubbles and read in Tecan Spark using a fluorometer setting of excitation 300 nm and emission 410 nm. The reading for the blank was subtracted from all the values. IC50 for the test compounds were determined by using Graphpad prism software v7.0.

Human CD38, sequence (P28907 whole entry): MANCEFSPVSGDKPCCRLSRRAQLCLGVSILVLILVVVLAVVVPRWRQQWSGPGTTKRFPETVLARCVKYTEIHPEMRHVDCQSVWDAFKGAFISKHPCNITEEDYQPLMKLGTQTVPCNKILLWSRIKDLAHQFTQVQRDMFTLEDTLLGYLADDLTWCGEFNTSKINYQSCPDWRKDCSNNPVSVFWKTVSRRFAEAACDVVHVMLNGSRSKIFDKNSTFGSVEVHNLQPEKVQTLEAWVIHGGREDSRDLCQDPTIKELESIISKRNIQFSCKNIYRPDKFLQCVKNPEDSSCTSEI

Row | Structure (SMILES) | pIC50
1 | COCCO[C@H]1CC[C@H](NC(=O)c2cccc(-n3ccnc3)n2)CC1 [Ex 11, 6-(1H-imidazol-1-yl)-N-((1r,4r)-4-(2-methoxyethoxy)cyclohexyl)picolinamide] | 7.31
2 | COCCO[C@H]1CC[C@H](NC(=O)c2cc(-c3cncs3)nc(-n3ccnc3)c2)CC1 [Ex. 1, N-((1r,4r)-4-(2-methoxyethoxy)cyclohexyl)-2-(thiazol-5-yl)-6-(1H-imidazol-1-yl)isonicotinamide] | 7.22
3 | COCCO[C@H]1CC[C@H](NC(=O)c2cc(-c3cncs3)nc(-c3cncs3)c2)CC1 [Ex. 2, N-((1r,4r)-4-(2-methoxyethoxy)cyclohexyl)-2,6-di(thiazol-5-yl)isonicotinamide] | < 7.00
4 | COCCO[C@H]1CC[C@H](NC(=O)c2cc(-c3cnn(C)c3)nc(-c3cncs3)c2)CC1 [Ex. 3, N-((1r,4r)-4-(2-methoxyethoxy)cyclohexyl)-2-(1-methyl-1H-pyrazol-4-yl)-6-(thiazol-5-yl)isonicotinamide] | 7.47
5 | COCCO[C@H]1CC[C@H](NC(=O)c2cc(-c3cncs3)nc(C(F)(F)F)c2)CC1 [Ex. 4, N-((1r,4r)-4-(2-methoxyethoxy)cyclohexyl)-2-(thiazol-5-yl)-6-(trifluoromethyl)isonicotinamide] | 5.46
6 | COCCO[C@H]1CC[C@H](NC(=O)c2cc(-c3cncs3)nc(-c3cncs3)n2)CC1 [Ex. 5, N-((1r,4r)-4-(2-methoxyethoxy)cyclohexyl)-2,6-di(thiazol-5-yl)pyrimidine-4-carboxamide] | 6.59
7 | COCCO[C@H]1CC[C@H](NC(=O)c2cc(-c3cnn(C)c3)nc(-c3cncs3)n2)CC1 [Ex. 6, N-((1r,4r)-4-(2-methoxyethoxy)cyclohexyl)-6-(1-methyl-1H-pyrazol-4-yl)-2-(thiazol-5-yl)pyrimidine-4-carboxamide] | 7.28
8 | COCCO[C@H]1CC[C@H](NC(=O)c2cc(SC)nc(-c3cncs3)n2)CC1 [Ex. 7, N-((1r,4r)-4-(2-methoxyethoxy)cyclohexyl)-6-(methylthio)-2-(thiazol-5-yl)pyrimidine-4-carboxamide] | < 5.00
9 | COCCO[C@H]1CC[C@H](NC(=O)c2cc(-c3cnn(C)c3)cc(-c3cncs3)n2)CC1 [Ex. 8, N-((1r,4r)-4-(2-methoxyethoxy)cyclohexyl)-4-(1-methyl-1H-pyrazol-4-yl)-6-(thiazol-5-yl)picolinamide] | 6.54
10 | COCCO[C@H]1CC[C@H](NC(=O)c2cccc(-c3cncs3)n2)CC1 [Ex. 9, N-((1r,4r)-4-(2-methoxyethoxy)cyclohexyl)-6-(thiazol-5-yl)picolinamide] | 5.00
11 | COCCO[C@H]1CC[C@H](NC(=O)c2cc(-c3c(C)nn(C)c3C)cc(-n3ccnc3)n2)CC1 [Ex. 14, 6-(1H-imidazol-1-yl)-N-((1r,4r)-4-(2-methoxyethoxy)cyclohexyl)-4-(1,3,5-trimethyl-1H-pyrazol-4-yl)picolinamide] | 7.62
12 | COCCO[C@H]1CC[C@H](NC(=O)c2cc(Cl)cc(-n3ccnc3)n2)CC1 [Ex. 18, 4-chloro-6-(1H-imidazol-1-yl)-N-((1r,4r)-4-(2-methoxyethoxy)cyclohexyl)-picolinamide] | 7.80
13 | COCCO[C@H]1CC[C@H](NC(=O)c2cc(C(F)(F)F)cc(-n3ccnc3)n2)CC1 [Ex. 19, 6-(1H-imidazol-1-yl)-N-((1r,4r)-4-(2-methoxyethoxy)cyclohexyl)-4-(trifluoromethyl)picolinamide] | 7.34
14 | COCCO[C@H]1CC[C@H](NC(=O)c2cc(F)cc(-n3ccnc3)n2)CC1 [Ex. 20, 4-fluoro-6-(1H-imidazol-1-yl)-N-((1r,4r)-4-(2-methoxyethoxy)cyclohexyl)picolinamide] | 7.67
15 | COCCO[C@H]1CC[C@H](NC(=O)c2cc(-n3ccnc3)nc(-n3ccnc3)c2)CC1 [Ex. 22, 2,6-di(1H-imidazol-1-yl)-N-((1r,4r)-4-(2-methoxyethoxy)cyclohexyl)isonicotinamide] | 7.75
16 | COCCO[C@H]1CC[C@H](NC(=O)c2cc(-c3cnn(C)c3)nc(-n3ccnc3)c2)CC1 [Ex. 23, 2-(1H-imidazol-1-yl)-N-((1r,4r)-4-(2-methoxyethoxy)cyclohexyl)-6-(1-methyl-1H-pyrazol-4-yl)isonicotinamide] | 7.68
17 | CCn1cc(-c2cc(C(=O)N[C@H]3CC[C@H](OCCOC)CC3)cc(-n3ccnc3)n2)cn1 [Ex. 24, 2-(1-ethyl-1H-pyrazol-4-yl)-6-(1H-imidazol-1-yl)-N-((1r,4r)-4-(2-methoxyethoxy)cyclohexyl)isonicotinamide] | 6.82
18 | COCCO[C@H]1CC[C@H](NC(=O)c2cc(-c3cnn(C(C)C)c3)nc(-n3ccnc3)c2)CC1 [Ex. 25, 2-(1H-imidazol-1-yl)-6-(1-isopropyl-1H-pyrazol-4-yl)-N-((1r,4r)-4-(2-methoxyethoxy)cyclohexyl)isonicotinamide] | 7.92
19 | COCCO[C@H]1CC[C@H](NC(=O)c2cc(-c3ccn(C)n3)nc(-n3ccnc3)c2)CC1 [Ex. 26, 2-(1H-imidazol-1-yl)-N-((1r,4r)-4-(2-methoxyethoxy)cyclohexyl)-6-(1-methyl-1H-pyrazol-3-yl)isonicotinamide] | 6.82
20 | COCCO[C@H]1CC[C@H](NC(=O)c2cc(C)cc(-n3ccnc3)n2)CC1 [Ex. 29, 6-(1H-imidazol-1-yl)-N-((1r,4r)-4-(2-methoxyethoxy)cyclohexyl)-4-methylpicolinamide] | 7.51
21 | COCCO[C@H]1CC[C@H](NC(=O)c2cc(-n3ccnc3)cc(-c3cnn(C)c3)n2)CC1 [Ex. 30, 4-(1H-imidazol-1-yl)-N-((1r,4r)-4-(2-methoxyethoxy)cyclohexyl)-6-(1-methyl-1H-pyrazol-4-yl)picolinamide] | 6.37
22 | O=C(N[C@H]1CC[C@H](O)CC1)c1cccc(-n2ccnc2)n1 [Ex. 31, N-((1r,4r)-4-hydroxycyclohexyl)-6-(1H-imidazol-1-yl)picolinamide] | 7.27
23 | O=C(NC1CCCCC1)c1cccc(-n2ccnc2)n1 [Ex. 32, N-cyclohexyl-6-(1H-imidazol-1-yl)picolinamide] | 7.28
24 | O=C(N[C@H]1CC[C@H](O)CC1)c1ccnc(-n2ccnc2)n1 [Ex. 34, N-((1r,4r)-4-hydroxycyclohexyl)-2-(1H-imidazol-1-yl)pyrimidine-4-carboxamide] | 7.59
25 | COCCO[C@H]1CC[C@H](NC(=O)c2cc(C)nc(-n3ccnc3)n2)CC1 [Ex. 35, 2-(1H-imidazol-1-yl)-N-((1r,4r)-4-(2-methoxyethoxy)cyclohexyl)-6-methylpyrimidine-4-carboxamide] | 8.13
26 | COCCO[C@H]1CC[C@H](NC(=O)c2cc(C(F)(F)F)nc(-n3ccnc3)n2)CC1 [Ex. 36, 2-(1H-imidazol-1-yl)-N-((1r,4r)-4-(2-methoxyethoxy)cyclohexyl)-6-(trifluoromethyl)pyrimidine-4-carboxamide] | 7.41
27 | COCCO[C@H]1CC[C@H](NC(=O)c2cc(SC)cc(-n3ccnc3)n2)CC1 [Ex. 37, 6-(1H-imidazol-1-yl)-N-((1r,4r)-4-(2-methoxyethoxy)cyclohexyl)-4-(methylthio)picolinamide] | 7.38
28 | COCCO[C@H]1CC[C@H](NC(=O)c2cc(C(C)O)cc(-n3ccnc3)n2)CC1 (stereo partly shown) [Ex. 38, 4-(1-Hydroxyethyl)-6-(1H-imidazol-1-yl)-N-((1r,4r)-4-(2-methoxyethoxy)cyclohexyl)picolinamide] | 6.51
